{"source": "paper PMC8375242", "about": "(International Journal of Nanomedicine, 2021)", "key": {"CT-26 homograft tumors": {"system": "CT-26 homograft tumors", "assay": "In vivo antitumor assay, CT-26 homograft", "parameters": "species or system BALB/c mice", "conditions": "days 6, 9, 12, 14, day 15, saline 1586"}, "[1]": {"system": "cisplatin-resistant cell line A549R", "assay": "MTT cytotoxicity assay, A549R", "type": "cell-based, human", "conditions": "for RF (resistant factor): RF=IC50(A549R)/IC50(A549); for IC50: read-out: IC50 A549R (48 h)"}, "[2]": {"system": "murine colon cancer (CT-26)", "assay": "MTT cytotoxicity assay, CT-26", "type": "cell-based", "conditions": "read-out: IC50 CT-26 (48 h)"}, "[3]": {"assay": "Serum AST, ALT, BUN and CRE detection", "type": "in vivo, BALB/c mice", "conditions": "4 mg Pt/kg (1-NPs, oxaliplatin i.v.; 1 i.p.), vs saline"}, "[4]": {"system": "human normal liver cell line LO-2", "assay": "MTT cytotoxicity assay, normal cell LO-2", "type": "cell-based", "conditions": "for IC50: read-out: IC50 LO-2 (48 h)"}, "MMP-9": {"system": "MMP-9", "assay": "Immunohistochemical detection of MMP-9 in tumor tissues", "type": "in vivo, BALB/c mice", "conditions": "4 mg Pt/kg (1-NPs, oxaliplatin i.v.; 1 i.p.), immunohistochemistry; saline 16.3±1.9"}, "iNOS": {"system": "iNOS", "assay": "Immunohistochemical detection of iNOS in tumor tissues", "type": "in vivo, BALB/c mice", "conditions": "4 mg Pt/kg (1-NPs, oxaliplatin i.v.), immunohistochemistry"}, "human lung cancer (A549)": {"system": "human lung cancer (A549)", "assay": "MTT cytotoxicity assay, A549", "type": "cell-based", "conditions": "read-out: IC50 A549 (48 h)"}, "[5]": {"system": "human ovarian cancer (SKOV-3)", "assay": "MTT cytotoxicity assay, SKOV-3", "type": "cell-based"}, "Toxicity in vivo": {"assay": "Toxicity in vivo", "parameters": "species or system BALB/c mice", "conditions": "4 mg Pt/kg (1-NPs, oxaliplatin i.v.; 1 i.p.)"}, "rhCOX-2": {"molecular_target": "T1, rhCOX-2 (Homo sapiens, UniProt P35354)", "T1 sequence (P35354 18-604)": "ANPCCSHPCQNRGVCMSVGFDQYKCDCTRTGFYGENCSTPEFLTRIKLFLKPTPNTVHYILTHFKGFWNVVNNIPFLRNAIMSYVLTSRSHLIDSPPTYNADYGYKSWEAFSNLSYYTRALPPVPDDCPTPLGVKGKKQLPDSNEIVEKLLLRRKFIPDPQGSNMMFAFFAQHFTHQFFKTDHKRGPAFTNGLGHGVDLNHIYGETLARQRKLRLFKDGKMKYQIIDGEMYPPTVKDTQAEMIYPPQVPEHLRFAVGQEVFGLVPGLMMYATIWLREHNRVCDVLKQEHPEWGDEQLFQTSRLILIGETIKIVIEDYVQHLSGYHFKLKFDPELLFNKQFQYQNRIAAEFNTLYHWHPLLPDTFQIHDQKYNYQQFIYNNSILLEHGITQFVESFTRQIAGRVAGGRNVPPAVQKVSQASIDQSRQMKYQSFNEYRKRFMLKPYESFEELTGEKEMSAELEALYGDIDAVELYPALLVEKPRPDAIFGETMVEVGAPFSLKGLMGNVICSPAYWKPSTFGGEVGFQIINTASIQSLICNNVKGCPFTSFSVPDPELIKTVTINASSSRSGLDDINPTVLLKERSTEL", "assay": "biochemical", "conditions": "read-out: COX-2 inhibition"}, "[6]": {"conditions": "MTT, 48 h incubation, normal liver cell"}, "[7]": {"conditions": "read-out: IC50 SKOV-3 (48 h), 48 h incubation"}, "[8]": {"conditions": "read-out: IC50 SKOV-3 (72 h), 72 h incubation"}}, "note": "Read-outs that look alike come from different tables or passages of the source.", "data": [{"smiles": "O=C1[O][Pt]2([NH][C@@H]3CCCC[C@H]3[NH]2)[O]C1=O", "note": "[oxaliplatin]", "values": [{"measurement": "tumor volume", "setting": "CT-26 homograft tumors; 4 mg Pt/kg (1-NPs, oxaliplatin i.v.; 1 i.p.)", "value": 477, "unit": "mm^3"}, {"measurement": "RF (resistant factor)", "setting": "[1]", "value": 0.4}, {"measurement": "IC50", "setting": "[1]; MTT, 48 h incubation", "value": "2.4 ± 0.6", "unit": "µM"}, {"measurement": "IC50", "setting": "[2]; MTT, 48 h incubation", "value": "4.1 ± 0.7", "unit": "µM"}, {"measurement": "ALT and AST levels in serum", "setting": "[3]", "value": "significant enhanced ALT and AST levels"}, {"measurement": "SI (selectivity index)", "setting": "[4]; SI = IC50(LO-2)/Average IC50", "value": 1.0}, {"measurement": "IC50", "setting": "[4]; [6]", "value": "4.8 ± 0.7", "unit": "µM"}, {"measurement": "expression of MMP-9, mean optical density", "setting": "MMP-9", "value": "6.5±0.5", "unit": "%"}, {"measurement": "expression of iNOS in tumor tissues", "setting": "iNOS", "value": "significantly upregulates iNOS"}, {"measurement": "IC50", "setting": "human lung cancer (A549); MTT, 48 h incubation", "value": "6.7 ± 1.8", "unit": "µM"}, {"measurement": "IC50", "setting": "[5]; [7]", "value": "5.9 ± 1.3", "unit": "µM"}, {"measurement": "IC50", "setting": "[5]; [8]", "value": "7.5 ± 1.8", "unit": "µM"}, {"measurement": "signs of toxicity during treatment", "setting": "Toxicity in vivo", "value": "anorexia and dyskinesia"}, {"measurement": "H&E histology of heart, liver, spleen, lung and kidney", "setting": "Toxicity in vivo; vs saline", "value": "no appreciable histological differences"}, {"measurement": "spleen weight index", "setting": "Toxicity in vivo; vs saline", "value": "remarkable suppressions of spleen"}]}, {"smiles": "COc1ccc2cc([C@H](C)C(=O)O)ccc2c1", "note": "[naproxen]", "values": [{"measurement": "inhibition at 40 µM", "setting": "rhCOX-2", "value": 74, "unit": "%"}, {"measurement": "IC50", "setting": "[1]; Homo sapiens, 48 h", "value": "> 100", "unit": "µM"}, {"measurement": "IC50", "setting": "[2]; Mus musculus, CT26, 48 h", "value": "> 100", "unit": "µM"}, {"measurement": "IC50", "setting": "[4]; Homo sapiens, 48 h", "value": "> 100", "unit": "µM"}, {"measurement": "IC50", "setting": "human lung cancer (A549); Homo sapiens, A549, 48 h", "value": "> 100", "unit": "µM"}]}, {"smiles": "N.N.[Cl][Pt][Cl]", "note": "[cisplatin]", "values": [{"measurement": "tumor volume", "setting": "CT-26 homograft tumors; 2 mg Pt/kg (2-NPs, cisplatin i.v.; 2 i.p.)", "value": 399, "unit": "mm^3"}, {"measurement": "RF (resistant factor)", "setting": "[1]", "value": 2.57}, {"measurement": "RF (resistant factor)", "setting": "[1]; listed as CDDP", "value": 2.6}, {"measurement": "IC50", "setting": "[1]; MTT, 48 h incubation", "value": "7.1 ± 1.3", "unit": "µM"}, {"measurement": "IC50", "setting": "[2]; MTT, 48 h incubation", "value": "1.2 ± 0.3", "unit": "µM"}, {"measurement": "IC50", "setting": "[4]; [6]", "value": "3.4 ± 1.2", "unit": "µM"}, {"measurement": "IC50", "setting": "human lung cancer (A549); MTT, 48 h incubation", "value": "2.8 ± 0.6", "unit": "µM"}, {"measurement": "IC50", "setting": "[5]; [7]", "value": "1.9 ± 0.4", "unit": "µM"}, {"measurement": "IC50", "setting": "[5]; [8]", "value": "1.2 ± 0.3", "unit": "µM"}]}]}
